One data set concerns mPTP. In words: mPTP activity (Ca2+ retention) assay in isolated rat liver mitochondria. It counts as biochemical. The note with it: isolated rat liver mitochondria; average value from multiple experiments (n ≥ 2). An excerpt: Pharmacological inhibition or modulation of the mPTP can be measured in well characterised ‘Ca^2+ retention’ assays performed in isolated mitochondria. In vitro isolated mitochondria rapidly sequester exogenous Ca^2+ until the intramitochondrial Ca^2+ concentration reaches the threshold for mPTP activation. Once the pore is activated, mitochondrial integrity is compromised and the stored Ca^2+ is released. The distribution of Ca^2+ between extra- and intra-mitochondrial compartments can be measured in real time with the use of membrane-impermeant Ca^2+ sensitive fluorescent dyes. Depending on the configuration of the assay, inhibition or modulation of the mPTP either delays the opening of the pore or increases the concentration of Ca^2+ required to induce mPTP opening.
MPTP activity was measured in mitochondria freshly isolated from female Sprague Dawley (250 to 300 gram) rat livers using the following method. Cervical dislocation was performed on the rat. The liver was then perfused in-situ with ˜40 ml cold Dulbecco's Phosphate Buffered Saline (DPBS) prior to dissection and transferred into 30 ml Isolation Buffer (250 mM Sucrose, 10 mM KCl, 1 mM EGTA, 1 mM EDTA, 25 mM HEPES, adjusted to pH 7.5 with 1 M NaOH). Each lobe of the liver was then removed from the buffer, minced using tweezers and a scalpel into ˜5 mm pieces then transferred into a 50 ml Potterton dounce homogenization tube on ice containing 30 ml ice-cold centrifugation buffer (300 mM Trehalose, 25 mM HEPES, 1 mM EGTA, 1 mM EDTA, 10 mM KCl, adjusted to pH 7.5 with 1 M NaOH and supplemented with 0.1% bovine serum albumin (BSA) and complete protease inhibitor cocktail (one tablet of inhibitor per 50 mls of buffer). Homogenisation was carried out using a teflon pestle at 1800 rpm. The slurry was centrifuged at 800 g for 10 min at 4° C., then the supernatant centrifuged at 10,000 g for 10 min. The pellet was washed once with FLIPR assay buffer (75 mM Mannitol, 25 mM Sucrose, 5 mM Potassium Phosphate Monobasic, 20 mM Tris base, 100 mM KCl, 0.1% BSA adjusted to pH 7.4 with 5M HCl) centrifuged again, then resuspended in FLIPR assay buffer to a concentration of 8.8 mg/ml protein.
Tested compounds (10 mM stock in DMSO) were serially diluted in DMSO in half log steps to generate 10 test concentrations (final concentrations in assay 30 μM to 1 nM). An intermediate dilution of 5 μl DMSO samples into 247 μl FLIPR assay buffer was carried out prior to transfer of 5 μl into duplicate wells of a 384 well polypropylene assay plate. Control wells were 0.5% (v/v) DMSO and 5 μM cyclosporin A.
A stock mitochondria/Fluo5N assay solution was prepared in 5.6 ml FLIPR assay buffer (at RT) supplemented with succinate disodium salt (10 mM), rotenone (1 μM), Fluo5N pentapotassium salt (2 μM) and 1 ml mitochondria suspension, then transferred (15 μl) into the assay plate containing test compounds and incubated for 10 min at RT. Assay plates were then transferred to a FLIPR Tetra plate reader (Molecular Devices). Dye fluorescence was then measured every 3 sec for a total of 10 min. After 12 sec, a 2.5 μl bolus of CaCl2 (75 μM) was added from a source plate containing 675 μM CaCl2 in FLIPR assay buffer. IC50 values for tested compounds were calculated using the fluorescence value collected at the 10 min timepoint with % inhibition calculated using the DMSO control and cyclosporin A values as […] respectively.

In the next data set the target is CYP2D6 (Homo sapiens (Human), UniProt P10635). The data set is described as follows: Cytochrome P450 CYP2D6 inhibition in human liver microsomes. It counts as in vitro ADME. The following applies: probe dextromethorphan 2 µM (dextrorphan formation); 1 uM test compound, human liver microsomes; average value from two experiments; negative values = no effective inhibition. On the procedure: Studies to assess tested compound mediated inhibition of cytochrome P450 enzyme isoform CYP2D6 were performed using human liver microsomes (BD Gentest) using either a single concentration (1 μM) of test compound or concentration response (0.1, 0.3, 1, 3, 10 and 30 μM) to derive an IC50. Tested compound solutions were prepared from 10 mM stocks in DMSO and diluted to 200 μM in DMSO. Reactions were prepared in a 96 deep well plate by combining 1 μl test compound with 179 μl reaction mixture (100 mM phosphate buffered saline (PBS), 0.2 mg/mL microsomes and 2 μM Dextromethorphan prepared from stocks as detailed below).
Sequence of CYP2D6 (P10635 whole entry, canonical isoform): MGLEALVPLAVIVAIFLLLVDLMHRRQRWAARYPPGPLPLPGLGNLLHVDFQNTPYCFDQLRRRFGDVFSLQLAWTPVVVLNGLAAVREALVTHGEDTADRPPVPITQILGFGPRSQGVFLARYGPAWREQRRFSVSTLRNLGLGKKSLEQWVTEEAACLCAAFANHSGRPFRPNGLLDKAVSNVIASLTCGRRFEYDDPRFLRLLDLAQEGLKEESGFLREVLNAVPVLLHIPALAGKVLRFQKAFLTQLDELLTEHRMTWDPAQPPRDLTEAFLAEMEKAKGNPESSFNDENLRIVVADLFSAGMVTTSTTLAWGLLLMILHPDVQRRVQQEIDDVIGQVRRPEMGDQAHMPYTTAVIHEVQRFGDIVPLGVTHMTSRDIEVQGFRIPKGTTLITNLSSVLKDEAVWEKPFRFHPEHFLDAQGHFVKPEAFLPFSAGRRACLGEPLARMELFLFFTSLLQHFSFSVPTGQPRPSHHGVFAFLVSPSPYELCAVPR
The positive control inhibitor, quinidine, was used at a final concentration of 0.5 μM when used at a single concentration. The final concentrations of quinidine used to derive an IC50 were 0, 0.1, 0.3, 1, 3, 10 and 30 μM. Plates were warmed at 37° C. for 15 min before starting reactions with 20 μl 10 mM NADPH solution in PBS and incubated for 20 min at 37° C. The assay is performed in duplicate. Reactions were quenched with 200 μl cold acetonitrile containing internal standards (200 nM labetalol, 200 nM alprazolam and 100 nM tolbutamide). The plate was centrifuged at 4000 rpm for 30 minutes, placed on ice for 20 minutes and then centrifuged at 4000 rpm for 30 minutes again to precipitate protein. 100 μL of the supernatant was transferred to a new plate and diluted with 100 μL pure water before being analysed using UPLC/MS/MS. The products of the transformation for dextromethorphan to dextrorphan was monitored by UPLC-MS/MS. The inhibition of CYP2D6 in human liver microsomes was measured as the percentage decrease in the activity of dextrorphan formation compared to non-inhibited controls (=100% activity). The IC50 value was calculated (test compound concentration which produces 50% inhibition) by using Excel Xlfit.

`Cc1c(F)cccc1NC(=O)/C=C/c1ccc2sc(=O)[nH]c2c1` [Example 2, (E)-N-(3-fluoro-2-methylphenyl)-3-(2-oxo-2,3-dihydrobenzo[d]thiazol-5-yl)acrylamide]: the “mPTP Rat liver pIC50” value in the data set with mPTP is reported as 6.0. As to `O=C(/C=C/c1ccc2oc(=O)[nH]c2c1)NC1CCc2ccccc21` (centres unmarked) [Example 11, (E)-N-(2,3-dihydro-1H-inden-1-yl)-3-(2-oxo-2,3-dihydrobenzo[d]oxazol-5-yl)acrylamide], the “mPTP Rat liver pIC50” value with mPTP came to 6.1. On CYP2D6, the inhibition at 20 min, 1 µM is -0.63%. Take `Cc1ccccc1NC(=O)/C=C/c1ccc2oc(=O)[nH]c2c1` [Example 12, (E)-3-(2-oxo-2,3-dihydrobenzo[d]oxazol-5-yl)-N-(o-tolyl)acrylamide]: in the data set on mPTP, the “mPTP Rat liver pIC50” value is 6.5. Further, the inhibition at 20 min, 1 µM on CYP2D6 was 3.05%.

In the case of `Cc1cc(F)c(F)cc1NC(=O)/C=C/c1ccc2oc(=O)[nH]c2c1` [Example 16, (E)-N-(4,5-difluoro-2-methylphenyl)-3-(2-oxo-2,3-dihydrobenzo[d]oxazol-5-yl)acrylamide], the “mPTP Rat liver pIC50” value in the data set with mPTP was 6.8. Further, the inhibition at 20 min, 1 µM against CYP2D6 was 1.72%. As for `Cn1c(=O)[nH]c2cc(/C=C/C(=O)NC3CCc4ccccc43)ccc21` (centres unmarked) [Example 24, (E)-N-(2,3-dihydro-1H-inden-1-yl)-3-(1-methyl-2-oxo-2,3-dihydro-1H-benzo[d]imidazol-5-yl)acrylamide], the “mPTP Rat liver pIC50” value in the data set on mPTP is listed as 6.1. Also, the inhibition at 20 min, 1 µM on CYP2D6 worked out at 0.77%. Regarding `Cc1cccc(C)c1NC(=O)/C=C/c1ccc2c(C)n[nH]c2c1` [Example 31, (E)-N-(2,6-dimethylphenyl)-3-(3-methyl-1H-indazol-6-yl)acrylamide], the “mPTP Rat liver pIC50” value in the data set on mPTP amounted to 7.7. In addition, at CYP2D6, the inhibition at 20 min, 1 µM was found to be 19.9%.

As for `CCc1n[nH]c2cc(/C=C/C(=O)NC3CCc4ccccc43)ccc12` (centres unmarked) [Example 32, (E)-N-(2,3-dihydro-1H-inden-1-yl)-3-(3-ethyl-1H-indazol-6-yl)acrylamide], in the data set on mPTP, the “mPTP Rat liver pIC50” value worked out at 6.6. Moreover, the inhibition at 20 min, 1 µM against CYP2D6 is 4.01%. For the molecule `O=C(/C=C/c1ccc2c(C3CC3)n[nH]c2c1)NC1CCc2ccccc21` (centres unmarked) [Example 33, (E)-3-(3-cyclopropyl-1H-indazol-6-yl)-N-(2,3-dihydro-1H-inden-1-yl)acrylamide], the “mPTP Rat liver pIC50” value with mPTP was determined as 6.3. Moreover, the inhibition at 20 min, 1 µM at CYP2D6 was -0.55%. On the same counts, the results for `Cc1n[nH]c2cc(/C=C/C(=O)NC3CCc4ccccc43)cc(F)c12` (centres unmarked) [Example 34, (E)-N-(2,3-dihydro-1H-inden-1-yl)-3-(4-fluoro-3-methyl-1H-indazol-6-yl)acrylamide] are 6.7 and 4.37%. For the molecule `Cc1n[nH]c2cc(/C=C/C(=O)N[C@@H]3CCCC[C@H]3C)ccc12` [Example 43, (E)-3-(3-methyl-1H-indazol-6-yl)-N-((1R,2R)-2-methylcyclohexyl)acrylamide], in the data set with mPTP, the “mPTP Rat liver pIC50” value is given as 6.3. Regarding `CC1Cc2ccccc2C1NC(=O)/C=C/c1ccc2c(c1)[nH]c(=O)n2C` (centres unmarked) [Example 45, (E)-N-(2-methyl-2,3-dihydro-1H-inden-1-yl)-3-(1-methyl-2-oxo-2,3-dihydro-1H-benzo[d]imidazol-5-yl)acrylamide], the “mPTP Rat liver pIC50” value with mPTP is 6.3. With `CC1Cc2ccccc2C1NC(=O)/C=C/c1ccc2oc(=O)[nH]c2c1` (centres unmarked) [Example 46, (E)-N-(2-methyl-2,3-dihydro-1H-inden-1-yl)-3-(2-oxo-2,3-dihydrobenzo[d]oxazol-5-yl)acrylamide], in the data set with mPTP, the “mPTP Rat liver pIC50” value came out at 6.3.

Regarding `Cc1n[nH]c2cc(/C=C/C(=O)NC3c4ccccc4OCC3C)ccc12` (centres unmarked) [Example 52, (E)-3-(3-methyl-1H-indazol-6-yl)-N-(3-methylchroman-4-yl)acrylamide], the “mPTP Rat liver pIC50” value in the data set with mPTP stood at 6.9.

Consider `Cc1n[nH]c2cc(/C=C/C(=O)NC3c4ccccc4CCC3C)ccc12` (centres unmarked) [Example 53, (E)-N-(2-methyl-1,2,3,4-tetrahydronaphthalen-1-yl)-3-(3-methyl-1H-indazol-6-yl)acrylamide], for which the “mPTP Rat liver pIC50” value in the data set on mPTP was determined as 6.7.

For `Cc1n[nH]c2cc(/C=C/C(=O)N[C@@H]3CCc4ccccc43)ccc12` [Example 55, (E)-N-(2,3-dihydro-1H-inden-1-yl)-3-(3-methyl-1H-indazol-6-yl)acrylamide], in the data set on mPTP, the “mPTP Rat liver pIC50” value was found to be 7.1. In the case of `O=C(/C=C/c1ccc2oc(=O)[nH]c2c1)NC1CCOc2ccccc21` (centres unmarked) [Example 56, (E)-N-(chroman-4-yl)-3-(2-oxo-2,3-dihydrobenzo[d]oxazol-5-yl)acrylamide], the “mPTP Rat liver pIC50” value in the data set on mPTP is reported as 5.8. Same read-out and setting: as for `O=C(/C=C/c1ccc2oc(=O)[nH]c2c1)NC1CCCc2ccccc21` (centres unmarked) [Example 57, (E)-3-(2-oxo-2,3-dihydrobenzo[d]oxazol-5-yl)-N-(1,2,3,4-tetrahydronaphthalen-1-yl)acrylamide], the figure is 5.8; as for `CC1CCc2ccccc2C1NC(=O)/C=C/c1ccc2c(c1)NC(=O)C2` (centres unmarked) [Example 58], 5.5; as for `O=C(/C=C/c1ccc2c(c1)NC(=O)C2)NC1CCc2ccccc21` (centres unmarked) [Example 59, (E)-N-(2,3-dihydro-1H-inden-1-yl)-3-(2-oxoindolin-6-yl)acrylamide], 5.5. With `Cc1c(F)cc(F)cc1NC(=O)/C=C/c1ccc2c(c1)NC(=O)C2` [Example 60, (E)-N-(3,5-difluoro-2-methylphenyl)-3-(2-oxoindolin-6-yl)acrylamide], in the data set with mPTP, the “mPTP Rat liver pIC50” value was determined as 5.7.

Regarding `O=C(/C=C/c1ccc2nn[nH]c2c1F)NC1CCc2ccccc21` (centres unmarked) [Example 61, (E)-N-(2,3-dihydro-1H-inden-1-yl)-3-(7-fluoro-1H-benzo[d][1,2,3]triazol-6-yl)acrylamide], the “mPTP Rat liver pIC50” value with mPTP turned out to be 5.6. Still for that read-out and setting: as for `O=C(/C=C/c1cc(F)c2nn[nH]c2c1)NC1CCc2ccccc21` (centres unmarked) [Example 62, (E)-N-(2,3-dihydro-1H-inden-1-yl)-3-(4-fluoro-1H-benzo[d][1,2,3]triazol-6-yl)acrylamide], the figure is 5.6; as for `Cc1ccc(Cl)cc1NC(=O)/C=C/c1ccc2oc(=O)[nH]c2c1` [Example 63, (E)-N-(5-chloro-2-methylphenyl)-3-(2-oxo-2,3-dihydrobenzo[d]oxazol-5-yl)acrylamide], 4.9; as for `CC1CCCCC1NC(=O)/C=C/c1ccc2c(c1)NC(=O)C2` (centres unmarked) [Example 64, (E)-N-(2-methylcyclohexyl)-3-(2-oxoindolin-6-yl)acrylamide], 4.9.

Values taken from patent publication US20250179028A1, “ACRYLAMIDE COMPOUNDS” (NRG THERAPEUTICS LTD, priority 2022, published 2025).
